This note sets out measurements from ChEMBL document CHEMBL4396865, “Current advances of triazole alcohols derived from fluconazole: Design, in vitro and in silico studies” (2019).

Converted amounts (≈) assume the structure as drawn.

Common to all, as to type: functional
The subject of assay [1] is Candida albicans. Put plainly: Antifungal activity against Candida albicans.
The next assay has as its system Candida parapsilosis. In words: Antifungal activity against Candida parapsilosis.
For the next assay, the system named is Candida tropicalis. Put plainly: Antifungal activity against Candida tropicalis.
Another assay has as its system Kluyveromyces marxianus. In words: Antifungal activity against Candida kefyr.
Assay [2] relates to Cryptococcus neoformans. In words: Antifungal activity against Cryptococcus neoformans.
A further assay relates to Trichophyton rubrum. In words: Antifungal activity against Trichophyton rubrum.
The next assay has as its system Aspergillus fumigatus. In words: Antifungal activity against Aspergillus fumigatus.
Assay [3] relates to Candida albicans. Put plainly: Antifungal activity against Candida albicans after 24 hrs by NCCLS protocol based method.
Assay [4] deals with Cryptococcus neoformans. Put plainly: Antifungal activity against Cryptococcus neoformans after 72 hrs by NCCLS protocol based method.
Setting [5] is: Lodderomyces parapsilosis, read-out: MIC.
[6] abbreviates: Cryptococcus neoformans, read-out: MIC.
Where [7] appears, read: Trichophyton rubrum, read-out: MIC.

Take `C#CCN(Cc1ccc(F)cc1)CC(O)(Cn1cncn1)c1ccc(F)cc1F` (stereo unspecified): the MIC against Candida albicans [1], in the assay on Candida parapsilosis, with Candida tropicalis, in the assay with Kluyveromyces marxianus, against Cryptococcus neoformans [2] and against Trichophyton rubrum was 0.24 to 250 ng/mL each time. The compound also gave an MIC in the assay on Aspergillus fumigatus of 0.24 to 250 ng/mL.

As for `C#CCN(Cc1cccc(F)c1)CC(O)(Cn1cncn1)c1ccc(F)cc1F` (stereo unspecified), the MIC against Candida albicans [1], with Candida parapsilosis, in the assay with Candida tropicalis, with Kluyveromyces marxianus, against Cryptococcus neoformans [2] and with Trichophyton rubrum was 0.24 to 250 ng/mL in each case. The same compound had an MIC in the assay with Aspergillus fumigatus of 0.24 to 250 ng/mL.

For the compound `C#CCN(Cc1cccc(Cl)c1)CC(O)(Cn1cncn1)c1ccc(F)cc1F` (stereo unspecified), the MIC against Candida albicans [1], against Candida parapsilosis, in the assay on Candida tropicalis, against Kluyveromyces marxianus, with Cryptococcus neoformans [2] and in the assay on Trichophyton rubrum was 0.24 to 250 ng/mL in each case. The compound also returned an MIC in the assay with Aspergillus fumigatus of 0.24 to 250 ng/mL.

In the case of `Cc1ccccc1-c1nnc(SCc2cn(CC(O)(Cn3cncn3)c3ccc(F)cc3F)nn2)o1` (stereo unspecified), the MIC80 with Candida albicans [1] (Candida albicans) was 500 ng/mL (≈ 979 nM).

`CCCc1ccc(-c2nnc(SCc3cn(CC(O)(Cn4cncn4)c4ccc(F)cc4F)nn3)o2)cc1` (stereo unspecified) displayed an MIC80 against Candida albicans [1] (Candida albicans) of 500 ng/mL (≈ 928 nM).

Turning to `C#CCN(Cc1cccc(C)c1)CC(O)(Cn1cncn1)c1ccc(F)cc1F` (stereo unspecified), the MIC in the assay with Candida albicans [1], in the assay with Candida parapsilosis, against Candida tropicalis, against Kluyveromyces marxianus, in the assay with Cryptococcus neoformans [2] and in the assay on Trichophyton rubrum was 0.24 to 250 ng/mL throughout. The same compound returned an MIC in the assay on Aspergillus fumigatus of 0.24 to 250 ng/mL.

As to `C#CCN(Cc1ccccc1Br)CC(O)(Cn1cncn1)c1ccc(F)cc1F` (stereo unspecified), the MIC with Candida albicans [1], against Candida parapsilosis, in the assay on Candida tropicalis, against Kluyveromyces marxianus, against Cryptococcus neoformans [2] and with Trichophyton rubrum was 0.24 to 250 ng/mL each time. In the assay with Aspergillus fumigatus, this compound yielded an MIC of 0.24 to 250 ng/mL.

On to `C#CCN(Cc1ccc(Cl)cc1)CC(O)(Cn1cncn1)c1ccc(F)cc1F` (stereo unspecified), for which the MIC against Candida albicans [1], in the assay with Candida parapsilosis, in the assay on Candida tropicalis, with Kluyveromyces marxianus, against Cryptococcus neoformans [2] and with Trichophyton rubrum was 0.24 to 250 ng/mL each time. The MIC in the assay on Aspergillus fumigatus lay in the range of 0.24 to 250 ng/mL.

Take `C#CCN(Cc1ccc(Br)cc1)CC(O)(Cn1cncn1)c1ccc(F)cc1F` (stereo unspecified): the MIC in the assay on Candida albicans [1], in the assay with Candida parapsilosis, with Candida tropicalis, in the assay on Kluyveromyces marxianus, against Cryptococcus neoformans [2] and with Trichophyton rubrum was 0.24 to 250 ng/mL each time. The compound further displayed an MIC in the assay on Aspergillus fumigatus of 0.24 to 250 ng/mL.

For the compound `C#CCN(Cc1ccccc1Cl)CC(O)(Cn1cncn1)c1ccc(F)cc1F` (stereo unspecified), the MIC against Candida albicans [1], with Candida parapsilosis, against Candida tropicalis, against Kluyveromyces marxianus, with Cryptococcus neoformans [2] and in the assay with Trichophyton rubrum was 0.24 to 250 ng/mL throughout. Besides, the MIC in the assay on Aspergillus fumigatus was 0.24 to 250 ng/mL.

Turning to `CCN(Cc1cn(Cc2ccc(Cl)cc2)nn1)CC(O)(Cn1cncn1)c1ccc(F)cc1F` (stereo unspecified), the MIC lay within 3.9 to 62.5 ng/mL (≈ 7.99 to 128 nM) with Candida albicans [1] (Candida albicans, read-out: MIC); 3.9 to 62.5 ng/mL (≈ 7.99 to 128 nM) in the assay on Candida parapsilosis (setting [5]); 3.9 to 62.5 ng/mL (≈ 7.99 to 128 nM) in the assay with Candida tropicalis (Candida tropicalis, read-out: MIC); 3.9 to 62.5 ng/mL (≈ 7.99 to 128 nM) with Kluyveromyces marxianus (Kluyveromyces marxianus, read-out: MIC); 3.9 to 62.5 ng/mL (≈ 7.99 to 128 nM) in the assay with Cryptococcus neoformans [2] (setting [6]); 3.9 to 62.5 ng/mL (≈ 7.99 to 128 nM) in the assay on Trichophyton rubrum (setting [7]).

As for `O=C1S/C(=C\c2ccco2)C(=O)N1CC(O)(Cn1cncn1)c1ccc(F)cc1F` (stereo unspecified), the MIC80 is 0.03 to 0.15 µM (≈ 0.013 to 0.0649 µg/mL) against Candida albicans [3] and 0.12 µM (≈ 0.0519 µg/mL) in the assay with Cryptococcus neoformans [4].

In the case of `C#CCN(Cc1ccc(C)cc1)CC(O)(Cn1cncn1)c1ccc(F)cc1F` (stereo unspecified), the MIC with Candida albicans [1], with Candida parapsilosis, with Candida tropicalis, with Kluyveromyces marxianus, against Cryptococcus neoformans [2] and against Trichophyton rubrum was 0.24 to 250 ng/mL throughout. In the assay with Aspergillus fumigatus, this compound had an MIC of 0.24 to 250 ng/mL.

For `CCN(Cc1cn(Cc2ccc(Cl)cc2Cl)nn1)CC(O)(Cn1cncn1)c1ccc(F)cc1F` (stereo unspecified), the MIC in the assay on Trichophyton rubrum (setting [7]) was determined as 3.9 ng/mL (≈ 7.47 nM).

For `OC(Cc1cn(Cn2ncc(CC3CCCCC3)n2)nn1)(Cn1cncn1)c1ccc(F)cc1F` (stereo unspecified), the MIC was 3 ng/mL (≈ 6.2 nM) with Candida parapsilosis (setting [5]) and 0.15 ng/mL (≈ 0.31 nM) in the assay on Cryptococcus neoformans [2] (setting [6]).

`C#CCN(Cc1ccccc1F)CC(O)(Cn1cncn1)c1ccc(F)cc1F` (stereo unspecified): the MIC in the assay on Candida albicans [1], with Candida parapsilosis, against Candida tropicalis, with Kluyveromyces marxianus, in the assay with Cryptococcus neoformans [2] and against Trichophyton rubrum was 0.24 to 250 ng/mL in each case. The MIC against Aspergillus fumigatus fell in the range of 0.24 to 250 ng/mL.

As to `CCCCCCc1cnn(Cn2cc(CC(O)(Cn3cncn3)c3ccc(F)cc3F)nn2)n1` (stereo unspecified), the MIC was determined as 3 ng/mL (≈ 6.36 nM) with Candida parapsilosis (setting [5]) and 0.15 ng/mL (≈ 0.318 nM) in the assay with Cryptococcus neoformans [2] (setting [6]).

As for `C#CCN(Cc1ccccc1C)CC(O)(Cn1cncn1)c1ccc(F)cc1F` (stereo unspecified), the MIC against Candida albicans [1], with Candida parapsilosis, in the assay with Candida tropicalis, with Kluyveromyces marxianus, in the assay with Cryptococcus neoformans [2] and in the assay on Trichophyton rubrum was 0.24 to 250 ng/mL each time. The compound also displayed an MIC against Aspergillus fumigatus of 0.24 to 250 ng/mL.

Regarding `O=C1S/C(=C\c2ccc(Cl)cc2Cl)C(=O)N1CC(O)(Cn1cncn1)c1ccc(F)cc1F` (stereo unspecified), the MIC80 against Candida albicans [3] was 0.03 to 0.15 µM (≈ 0.0153 to 0.0767 µg/mL); in the assay with Cryptococcus neoformans [4], 0.12 µM (≈ 0.0614 µg/mL).

For the compound `CN(CCOc1ccc(CC2SC(=O)N(CC(O)(Cn3cncn3)c3ccc(F)cc3F)C2=O)cc1)c1ccccn1` (stereo unspecified), the results for the MIC80 in the assay with Candida albicans [3] and with Cryptococcus neoformans [4] were 6.72 µM (≈ 4 µg/mL) and 13.4 µM (≈ 8 µg/mL), respectively.

`O=C1S/C(=C\c2ccoc2)C(=O)N1CC(O)(Cn1cncn1)c1ccc(F)cc1F` (stereo unspecified): the figures for the MIC80 against Candida albicans [3] and in the assay on Cryptococcus neoformans [4] were 0.03 to 0.15 µM (≈ 0.013 to 0.0649 µg/mL) and 0.12 µM (≈ 0.0519 µg/mL), respectively.

Regarding `C#CCN(Cc1cccc(Br)c1)CC(O)(Cn1cncn1)c1ccc(F)cc1F` (stereo unspecified), the MIC with Candida albicans [1], with Candida parapsilosis, in the assay on Candida tropicalis, with Kluyveromyces marxianus, against Cryptococcus neoformans [2] and in the assay on Trichophyton rubrum was 0.24 to 250 ng/mL in each case. The compound also came in with an MIC against Aspergillus fumigatus of 0.24 to 250 ng/mL.

With `Cc1cccc(-c2cn(CC(O)(Cn3cncn3)c3ccc(F)cc3F)nn2)c1` (stereo unspecified), the MIC with Trichophyton rubrum (setting [7]) was 250 ng/mL (≈ 631 nM).
